Values quoted from earlier work as cited in patent US4971799A, “Percutaneous-administration-type pharmaceutical preparation of nitroglycerin” (Sekisui Kagaku Kogyo Kabushiki Kaisha, priority 1987, dated 1990).

Settings: intravenous injection

O=[N+]([O-])OCC(CO[N+](=O)[O-])O[N+](=O)[O-] [nitroglycerin]
Duration of effects: effects are lost after a very short period of time
Side effects (high blood level for a short period): headache, dizziness, orthostatic hypotension
